# According to ChEMBL document CHEMBL3352707, “Antimycobacterial activity of natural products and synthetic agents: pyrrolodiquinolines and vermelhotin as anti-tubercular leads against clinical multidrug resistant isolates of Mycobacterium tuberculosis” (Eur J Med Chem, 2015):
# Test system: Mycobacterium tuberculosis
# Test: Antimycobacterial activity against Mycobacterium tuberculosis H37Rv after 7 days by microplate Alamar blue assay
# Format: functional
# Settings: 168 h
row,SMILES,MIC [µg/mL]
1,COCCC(=O)O,100
2,COC(=O)CCC[N+](=O)[O-],25
3,O=C(O)CC[N+](=O)[O-],12.5
4,O=C1C[C@H]2SS[C@@]34C[C@@H]1[C@@H]([C@H]2O)N3C(=O)[C@@]12C[C@H]3C(=O)C[C@@H](S1)[C@H](O)[C@H]3N2C4=O [EPICOCCIN A],> 100

# Test system: Mycobacterium tuberculosis
# Test: Antimycobacterial activity against Mycobacterium tuberculosis H37Ra after 7 days by microplate Alamar blue assay
# Format: functional
# Settings: 168 h
row,SMILES,MIC [µg/mL]
1,COc1ccc2oc(=O)c(C(C)=O)cc2c1,> 100
2,COc1ccc2cc(C(C)=O)c(=O)oc2c1,> 100
3,COC(=O)c1cc2ccccc2oc1=O,> 100
4,O=[N+]([O-])c1cccc2ncccc12,100
5,COC(=O)c1cc2c(ccc3ccccc32)oc1=O,50
6,CC(=O)c1cc2cccc(O)c2oc1=O,> 100
7,CC(=O)c1cc2cc(Cl)ccc2oc1=O,> 100
8,O=C(c1ccccc1)c1cc2cc(Cl)ccc2oc1=O,> 100
9,O=C(c1ccccc1)c1cc2c(ccc3ccccc32)oc1=O,> 100
10,C/C=C(\C)c1c(Br)c(O)c(C)c2c1Oc1cc(O)c(Br)c(C)c1C(=O)O2,50
11,O=C1CCCC2=C1C(c1c[nH]c3ccccc13)c1c(ccc3ccccc13)O2 (stereo unspecified),> 100
12,COCCC(=O)O,> 100
13,COC(=O)CCC[N+](=O)[O-],12.5
14,C/C=C(\C)c1c(Cl)c(OC)c(C)c2c1Oc1c(Cl)c(O)c(Cl)c(C)c1C(=O)O2,100
15,C/C=C(\C)c1c(Cl)c(OC)c(C)c(O)c1Oc1c(Cl)c(O)c(Cl)c(C)c1C(=O)OC,100
16,COC(=O)[C@@H]1CC[C@@]23COC(=O)C2=CCC[C@@H]3[C@@]1(C)CC(=O)c1ccoc1,> 100
17,COc1cc(O)cc2cc3c(c(O)c12)C(=O)C[C@@](C)(O)C3,25
18,C[C@@H]1CCN2C[C@@]34C[C@@]5(CC(=O)N(C)C5=O)C(C)(C)[C@H]3C[C@@]12C(=O)N4C,25
19,CC[C@@H](C)C[C@]1(C)C=C/C(=C2/C(=O)O[C@H](CC(=O)O)C2=O)O1,100
20,CC[C@H](C)[C@@H](O)[C@@H](C)C(=O)O[C@H]1CC(CC(=O)[C@H]2[C@H](C)CCC[C@@H]2O)=C(C)C(=O)[C@@]1(C)O,> 100
21,CC[C@H](C)[C@@H](O)[C@@H](C)C(=O)O[C@@]1(C)C(=O)c2c(cc(O)c3c2CCC[C@H]3C)C(C)(O)C1=O (stereo partly specified),> 100

row,SMILES,MIC [µg/mL]
1,C/C(=C\C=C\[C@H](O)[C@@H](C)O)[C@H](O)[C@H](C)C(=O)O[C@H]1C[C@H](C)C[C@@H]2C=C[C@H](C)[C@](C)(C(=O)CCO)[C@@H]12,> 100
2,C/C(=C\C=C\[C@H](O)[C@@H](C)O)[C@H](O)[C@H](C)C(=O)O[C@H]1C[C@H](C)C[C@@H]2C=C[C@H](C)[C@](C)(C(=O)C(O)CO)[C@@H]12 (stereo partly specified),> 100
3,C/C(=C\C=C\[C@H](O)[C@@H](C)O)[C@H](O)[C@H](C)C(=O)O[C@H]1C[C@H](CO)C[C@@H]2C=C[C@H](C)[C@](C)(C(=O)C(O)CO)[C@@H]12 (stereo partly specified),> 100
4,CC1=CC2=C(Cc3c(O)cc(C)oc3=O)C(=O)[C@](C)(O)[C@@H](O)C2=CO1,> 100
5,O=C1c2c(O)cc(O)c([C@@H]3C(=O)c4c(O)cc(O)cc4O[C@H]3c3ccc(O)cc3)c2O[C@H](c2ccc(O)cc2)[C@H]1O,> 100
6,O=C1NC(=O)/C(=C2/CCNC(=O)c3[nH]c(Br)cc32)N1,> 100
7,CN1c2cccc([N+](=O)[O-])c2C2CC1OC1=C2C(=O)CC(C)(C)C1 (stereo unspecified),> 100
8,CN1c2ccccc2C2CC1OC1=C2C(=O)CC(C)(C)C1 (stereo unspecified),> 100
9,CN1c2ccccc2C2CC1OC1=C2C(=O)CCC1 (stereo unspecified),> 100
10,CC(=O)c1cc2ccccc2[nH]c1=O,> 100
11,O=C(c1ccccc1)c1cc2cc([N+](=O)[O-])ccc2oc1=O,50
12,CC1(C)CC(=O)C2=C(C1)Oc1ccccc1C2c1c[nH]c2ccccc12 (stereo unspecified),50
13,CC1(C)CC(=O)C2=C(C1)Oc1c(O)cccc1C2c1c[nH]c2ccccc12 (stereo unspecified),100
14,COc1ccc2c(c1)OC1=C(C(=O)CC(C)(C)C1)C2c1c[nH]c2ccccc12 (stereo unspecified),100
15,COc1ccc(Br)c2c1OC1=C(C(=O)CC(C)(C)C1)C2c1c[nH]c2ccccc12 (stereo unspecified),> 100
16,CC1(C)CC(=O)C2=C(C1)Oc1c(cc(C(C)(C)C)cc1C(C)(C)C)C2c1c[nH]c2ccccc12 (stereo unspecified),> 100
17,CCN(CC)c1ccc2c(c1)OC1=C(C(=O)CC(C)(C)C1)C2c1c[nH]c2ccccc12 (stereo unspecified),> 100
18,CC1(C)CC(=O)C2=C(C1)Oc1ccc(Cl)cc1C2c1c(C(=O)O)[nH]c2ccccc12 (stereo unspecified),100
19,CC1(C)CC(=O)C2=C(C1)Oc1ccc3ccccc3c1C2c1c[nH]c2ccccc12 (stereo unspecified),25
20,O=C1CCCC2=C1C(c1c[nH]c3ccccc13)c1ccccc1O2 (stereo unspecified),> 100
21,O=C1CCCC2=C1C(c1c[nH]c3ccccc13)c1ccc(O)cc1O2 (stereo unspecified),> 100

row,SMILES,MIC [µg/mL]
1,COc1ccc2c(c1)OC1=C(C(=O)CCC1)C2c1c[nH]c2ccccc12 (stereo unspecified),> 100
2,O=C1CCCC2=C1C(c1c[nH]c3ccccc13)c1cc(Cl)ccc1O2 (stereo unspecified),50
3,O=C1CCCC2=C1C(c1c[nH]c3ccccc13)c1cc(Br)ccc1O2 (stereo unspecified),50
4,COc1ccc2c(c1)C(c1c[nH]c3ccccc13)C1=C(CCCC1=O)O2 (stereo unspecified),100
5,O=C1CCCC2=C1C(c1c[nH]c3ccccc13)c1cccc(O)c1O2 (stereo unspecified),> 100
6,COc1ccc(Br)c2c1OC1=C(C(=O)CCC1)C2c1c[nH]c2ccccc12 (stereo unspecified),> 100
7,COc1ccc(Br)c2c1OC1=C(C(=O)CC(C)(C)C1)C2n1nnc2ccccc21 (stereo unspecified),> 100
8,CC1(C)CC(=O)C2=C(C1)Oc1ccc(Br)cc1C2n1nnc2ccccc21 (stereo unspecified),> 100
9,CC1(C)CC(=O)C2=C(C1)Oc1c(O)cccc1C2n1nnc2ccccc21 (stereo unspecified),> 100
10,O=C1CCCC2=C1C(n1nnc3ccccc31)c1cc(Cl)ccc1O2 (stereo unspecified),> 100
11,O=C1CCCC2=C1C(n1nnc3ccccc31)c1cc(Br)ccc1O2 (stereo unspecified),> 100
12,COc1ccc2c(c1)C(n1nnc3ccccc31)C1=C(CCCC1=O)O2 (stereo unspecified),> 100
13,COc1ccc(Br)c2c1OC1=C(C(=O)CCC1)C2n1nnc2ccccc21 (stereo unspecified),> 100
14,CN1C(=O)C(C2C3=C(CC(C)(C)CC3=O)Oc3ccccc32)C(=O)N(C)C1=O (stereo unspecified),> 100
15,CN1C(=O)C(C2C3=C(CC(C)(C)CC3=O)Oc3ccc(Cl)cc32)C(=O)N(C)C1=O (stereo unspecified),> 100
16,CN1C(=O)C(C2C3=C(CC(C)(C)CC3=O)Oc3ccc(Br)cc32)C(=O)N(C)C1=O (stereo unspecified),> 100
17,COc1ccc2c(c1)C(C1C(=O)N(C)C(=O)N(C)C1=O)C1=C(CC(C)(C)CC1=O)O2 (stereo unspecified),> 100
18,CN1C(=O)C(C2C3=C(CC(C)(C)CC3=O)Oc3ccc([N+](=O)[O-])cc32)C(=O)N(C)C1=O (stereo unspecified),> 100
19,CN1C(=O)C(C2C3=C(CCCC3=O)Oc3ccc(Cl)cc32)C(=O)N(C)C1=O (stereo unspecified),> 100
20,CN1C(=O)C(C2C3=C(CCCC3=O)Oc3ccc(Br)cc32)C(=O)N(C)C1=O (stereo unspecified),> 100
21,CN1C(=O)C(C2C3=C(CCCC3=O)Oc3ccc([N+](=O)[O-])cc32)C(=O)N(C)C1=O (stereo unspecified),> 100

row,SMILES,MIC [µg/mL]
1,COc1ccc2c(c1)C(C1=C(O)CCCC1=O)C1=C(CCCC1=O)O2 (stereo unspecified),> 100
2,COC(=O)C1=C(C)Oc2c(cc(C(C)(C)C)cc2C(C)(C)C)[C@@H]1[C@H](C(C)=O)C(=O)OC,> 100
3,COC(=O)C1=C(C)Oc2ccc(Cl)cc2[C@@H]1[C@H](C(C)=O)C(=O)OC,> 100
4,COC(=O)C1=C(C)Oc2ccc(Br)cc2[C@@H]1[C@H](C(C)=O)C(=O)OC,> 100
5,COC(=O)C1=C(C)Oc2ccc(OC)cc2[C@@H]1[C@H](C(C)=O)C(=O)OC,> 100
6,COC(=O)C1=C(C)Oc2c(O)cccc2[C@@H]1[C@H](C(C)=O)C(=O)OC,> 100
7,O=C(O)CC[N+](=O)[O-],50
8,O=C(c1ccccc1)c1cc2ccccc2oc1=O,50
9,CC(=O)c1cc2cc(Br)ccc2oc1=O,> 100
10,CCC(N)C(=O)O (racemic),> 100
11,C[C@@H]1[C@H](O)[C@@H](C)/C=C/C=C/C=C/C=C/C=C/C=C/C=C/[C@H](O[C@@H]2O[C@H](C)[C@@H](O)[C@H](N)[C@@H]2O)C[C@@H]2O[C@](O)(C[C@@H](O)C[C@@H](O)[C@H](O)CC[C@@H](O)C[C@@H](O)CC(=O)O[C@H]1C)C[C@H](O)[C@H]2C(=O)O [AMPHOTERICIN B],> 100
12,O=C(OC[C@@H](O)[C@@H](O)COC(=O)/C(Cc1ccc(O)cc1)=N\O)/C(Cc1ccc(O)cc1)=N\O [ASPERGILLUSOL A],> 100
13,COC(=O)[C@]1(Cc2ccc3c(c2)C[C@H](O)C(C)(C)O3)OC(=O)C(O)=C1c1ccc(O)cc1 [BUTYROLACTONE V],> 100
14,Cc1cc(O)c2c(c1O)C(=O)c1cc(O)cc(O)c1C2=O [CATENARIN],100
15,O=C1C[C@H]2SS[C@@]34C[C@@H]1[C@@H]([C@H]2O)N3C(=O)[C@@]12C[C@H]3C(=O)C[C@@H](S1)[C@H](O)[C@H]3N2C4=O [EPICOCCIN A],> 100
16,O=c1cc(CO)occ1O [KOJIC ACID],> 100
17,COc1cc(O)cc2c1C(=O)c1c(O)cc(C)cc1C2=O [QUESTIN],50
18,COC(=O)[C@@]12Oc3ccc(-c4ccc5c(c4O)C(O)C4=C(O)C[C@H](C)[C@@H](O)[C@]4(C(=O)OC)O5)c(O)c3C(=O)C1=C(O)C[C@H](C)[C@H]2O (stereo partly specified) [SECALONIC ACID D],> 100
19,NCCS(=O)(=O)O [TAURINE],> 100
